Results from patent US20250108038A1 (priority 2023, published 2025).
pIC50: −log10 of the molar value.

Assays:
Wistar rats [1] = assay: Five Choice Serial Reaction Time Task, vITI version, repeated administration; type: in vivo, Wistar rat; design: Latency (Correct) / Latency (Incorrect): unit not given here; settings: for Latency (Correct) / Latency (Incorrect) / Magazine Head Entries / Omissions / Reward Latency / Trials Completed: vITI, mean ± SEM
Description: (§1) The behavioral tasks utilized were three versions of the rat Five Choice Serial Reaction Time Task (5C-SRTT), the standard version of the task (STD) with a fixed stimulus duration and a fixed intertrial interval, the variable stimulus duration (vSD) and the variable intertrial interval (vITI) version. The principal readout parameters in each task were the % Hit and the % correct choices (measures of sustained attention) and three measures of inhibitory response control (premature, perseverative, and timeout responses), although a number of additional outcome measures were obtained (see under Methods and Results below).
(§2) Twenty-four adult (approx. 10 months old) male Wistar rats (Envigo, Inc, Indianapolis, IN) were used in the study. […] Subjects were double housed in polycarbonate cages (45×30×18 cm) with corncob bedding in a vivarium of constant temperature (21-23° C.) and humidity (40-50%). […] All behavioral testing was performed during the light portion (9 a.m.-5 p.m.) of the light/dark cycle (Monday thru Friday). Animals were cared for in accordance with the Guide for the Care and Use of Laboratory Animals (U.S. National Institutes of Health) and the experimental protocols were approved by the Institutional Animal Care and Use Committee at Augusta University (Protocol #2010-0044).
(§3) The 5C-SRTT procedure (reviewed, Robbins, 2002. Psychopharmacology (Berl); 163(3-4):362-80) was conducted as we have described previously (Terry et al., 2014, Neurotoxicology and Teratology 44:18-29, 2014; Callahan et al., 2020, Neuropharmacology. August 15; 173:107994). […] Animals were trained in eight automated 5C-SRTT operant chambers (Med Associates, St. Albans, VT, USA), controlled by MedPC software (Med Associates). Briefly, each operant chamber was equipped with 5 apertures containing a photocell beam to detect nose pokes and a lamp (2.8 W) that could be illuminated randomly at varying durations. Food pellets (45 mg chow pellet, BioServ, Frenchtown, NJ, USA) were delivered automatically to a magazine, located on the opposite wall to the nose pokes, that was also equipped with a light that turned on to indicate that a pellet had been dispensed. The house-light remained on for the entire session unless an error or omission occurred. Training sessions began with the delivery of a food reward and retrieval triggered the first trial. […] Sessions ended when 40 minutes had lapsed or 100 trials had been completed.
(§4) For this study, subjects were re-trained 5 days per week until they re-established a stable performance criteria with a fixed (1.0 sec) stimulus duration and a fixed ITI (5 sec) of 70-75% accuracy, <20% omissions and completion of all 100 trials for 5 consecutive days. Upon meeting these performance criteria animals were trained for one additional week and two groups of subjects (N=12) were assembled and balanced according to their performance accuracy, specifically the % Hit evaluation, which takes into account correct responses as well as all incorrect responses including the number of omissions. […] The vSD version of the task increases the attentional load while the vITI increases impulsivity-like behavior. The following outcome measures and behavioral domains were assessed: % Hit and % correct=sustained attention; omissions=attention/motivation; premature responses=impulsivity; perseverative responses=compulsivity; timeout responses=cognitive inflexibility; magazine head entries=appetitive motivation and compulsivity-like behavior; response latencies=information processing speed and/or motivation. For the STD version of the task, the stimulus duration (SD) was fixed at 1.0 sec and the ITI was fixed at 5 sec. In the vSD version of the task the following stimulus durations were presented in a pseudorandom manner: 0.3, 0.6, and 0.9 sec. In the vITI version, 2.5, 5.0, and 10.0 sec ITIs were employed in a pseudorandom manner. […]

CYP2B6 = target: T1, CYP2B6 (Homo sapiens, UniProt P20813)
T1 sequence (P20813 1-491): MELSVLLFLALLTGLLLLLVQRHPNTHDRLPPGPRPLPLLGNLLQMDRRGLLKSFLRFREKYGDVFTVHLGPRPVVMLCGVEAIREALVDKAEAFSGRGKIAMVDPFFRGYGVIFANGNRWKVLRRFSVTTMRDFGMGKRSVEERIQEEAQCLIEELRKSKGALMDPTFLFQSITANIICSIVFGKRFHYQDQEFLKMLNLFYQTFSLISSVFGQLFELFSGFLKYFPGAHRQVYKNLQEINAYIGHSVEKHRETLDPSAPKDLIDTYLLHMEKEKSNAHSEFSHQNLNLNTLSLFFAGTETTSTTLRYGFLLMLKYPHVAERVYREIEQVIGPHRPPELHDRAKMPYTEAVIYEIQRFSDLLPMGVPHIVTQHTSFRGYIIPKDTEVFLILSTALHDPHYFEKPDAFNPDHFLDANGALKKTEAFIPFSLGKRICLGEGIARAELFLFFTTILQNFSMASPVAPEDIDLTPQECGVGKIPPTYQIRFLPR

Wistar rats [2] = assay: Five Choice Serial Reaction Time Task, standard version (STD), repeated administration; type: in vivo, Wistar rat; design: Latency (Correct) / Latency (Incorrect): unit not given here; settings: for Latency (Correct) / Latency (Incorrect) / Magazine Head Entries / Omissions / Reward Latency / Trials Completed: STD
Description: as §1, §2, §3, §4

[3] = repeated 0.1 and 0.3 mg/kg IP, 10 sec ITI
[4] = Group 1, 0.1 mg/kg, Drug Exp period
[5] = Group 1, 0.1 mg/kg, Post-Drug Exp (vehicle washout) period
[6] = Group 2, 0.3 mg/kg, Drug Exp period
[7] = Group 2, 0.3 mg/kg, Post-Drug Exp (vehicle washout) period
[8] = Group 1, 0.1 mg/kg, Drug Exp period, mean ± SEM
[9] = Group 1, 0.1 mg/kg, Post-Drug Exp (vehicle washout) period, mean ± SEM
[10] = Group 2, 0.3 mg/kg, Drug Exp period, mean ± SEM
[11] = Group 2, 0.3 mg/kg, Post-Drug Exp (vehicle washout) period, mean ± SEM

## Clc1ccc(C2(OCC3OCCO3)c3ccccc3C3=NCCN32)cc1 (centres unmarked) [Compound I-19]
Wistar rats [1]; repeated 0.1 and 0.3 mg/kg IP
  % Hit: modest decrease in accuracy that was limited to the 2.5 sec ITI
Wistar rats [1]; [3]
  premature responses: reduced the number of premature responses compared to both the pre- and post-drug conditions at the 10 sec ITI
  timeout responses: reduced the number of timeout responses compared to both the pre- and post-drug conditions at the 10 sec ITI
Wistar rats [1]; [4]
  Latency (Correct): 0.99
  Latency (Incorrect): 2.27 ± 0.12
  Magazine Head Entries: 236.13
  Omissions: 17.04
  Reward Latency: 2.77
  Trials Completed: 91.83 ± 4.15
Wistar rats [1]; [5]
  Latency (Correct): 0.90 ± 0.03
  Latency (Incorrect): 2.03 ± 0.09
  Magazine Head Entries: 318.71 ± 34.88
  Omissions: 9.63 ± 1.15
  Reward Latency: 2.13
  Trials Completed: 85.62 ± 4.17
Wistar rats [1]; [6]
  Latency (Correct): 0.97
  Latency (Incorrect): 2.26
  Magazine Head Entries: 268.17
  Omissions: 13.42
  Reward Latency: 3.21
  Trials Completed: 87.50
Wistar rats [1]; [7]
  Latency (Correct): 0.81 ± 0.03
  Latency (Incorrect): 1.82 ± 0.10
  Magazine Head Entries: 415.04 ± 70.50
  Omissions: 6.75 ± 1.44
  Reward Latency: 2.06
  Trials Completed: 78.46 ± 4.47
CYP2B6; 2B6, Bupropion, at 50 μM
  Inhibition at Highest Test Article Concentration: 77.2 at 50 μM %
CYP2B6; microsomes
  pIC50: 5.13
Wistar rats [2]; [8]
  Latency (Correct): 0.94
  Latency (Incorrect): 2.15
  Magazine Head Entries: 150.65 ± 9.46
  Omissions: 9.43
  Reward Latency: 3.53
  Trials Completed: 96.99 ± 2.12
Wistar rats [2]; [9]
  Latency (Correct): 0.87 ± 0.03
  Latency (Incorrect): 1.86 ± 0.09
  Magazine Head Entries: 168.06 ± 13.60
  Omissions: 4.46 ± 0.81
  Reward Latency: 2.64
  Trials Completed: 97.65 ± 2.23
Wistar rats [2]; [10]
  Latency (Correct): 0.92
  Latency (Incorrect): 2.28
  Magazine Head Entries: 183.89 ± 32.19
  Omissions: 8.10 ± 2.32^+
  Reward Latency: 4.08
  Trials Completed: 98.44 ± 0.95
Wistar rats [2]; [11]
  Latency (Correct): 0.78
  Latency (Incorrect): 1.61 ± 0.07
  Magazine Head Entries: 211.72 ± 32.77
  Omissions: 3.26 ± 0.95
  Reward Latency: 2.27
  Trials Completed: 100.00
Wistar rats [2]; repeated 0.1 and 0.3 mg/kg IP
  % Hit and % correct: did not significantly affect either the % Hit or the % correct
  premature responses: reduced the number of premature responses compared to pre- and post-drug conditions
Wistar rats [2]; repeated 0.1 and 0.3 mg/kg IP, vSD and vITI versions
  Omissions: modest increases in the number of omissions
